Source: patent US20030119904A1, “Acetyl L-carnitine salt with a dicarboxilic organic acid and process for preparing same” (priority 2001, published 2003)
Structures can show the parent of a compound that is named as a salt.

What was measured:
[1] = Hygroscopicity: exposure of powder or granules to relative humidity at 25° C. for 24 hours; format: physicochemical
Protocol: By “hygroscopic” is meant herein the bothersome property shown by most of L-carnitine and alkanoyl L-carnitine salts (particularly by their “inner salts”) to undergo, when they occur as powders or granules, significant alteration of their flowability due to their clotting, agglomeration or even deliquescence, following exposure to an environment of relative humidity […] 50-60%, at 25° C., for 24 hours.

[2] = known from prior art / marketed product; cited from earlier work

Structure (SMILES)	hygroscopicity of the isolated solid ([1]; non-hygroscopic = withstands relative humidity of at least 60%, as powder or granules, without clotting, agglomeration or deliquescence)	relative humidity withstood without loss of flowability ([1]; powder or granules) [%]	hygroscopicity (prior art statement) [2]
CC(=O)O[C@H](CC(=O)O)C[N+](C)(C)C.O=C([O-])/C=C/C(=O)O [ALCFH, acetyl L-carnitine acid fumarate]	non-hygroscopic	≥ 60	
C[N+](C)(C)C[C@H](O)CC(=O)O.O=C([O-])/C=C/C(=O)O [L-carnitine acid fumarate]			non-hygroscopic
CC(=O)O[C@H](CC(=O)[O-])C[N+](C)(C)C [acetyl L-carnitine inner salt]			high hygroscopicity
